{"source": "patent US7767398B2", "about": "“Means and methods for diagnosing and treating affective disorders” (Affectis Pharmaceuticals AG, priority 2003, dated 2010)", "tested_on": "mice", "assay": "Porsolt's forced swim test", "type": "in vivo, mouse", "settings": "50 μM BzATP, 1 μl each side intrahippocampal, 24 hours after injection, DBA/2OIa mice", "procedure": "Further validation of role of P2X7R in affective disorders was performed by examining its expression pattern in response to stress and treatment with antidepressant drugs. […] In parallel, a control group of mice was given vehicle solution (i.e. without paroxetine) using the same treatment regiment while a second control group of mice was left undisturbed and stress-free (i.e. untreated) during the same period of the experiments. At the end of the long-term treatment, part of the mice of each experimental group were tested in the dark/light box (test of anxiety behaviour) and in the Porsolt's forced swim test (test of depressive-like behaviour) to confirm the effectiveness of the treatment (FIG. 5). […] The other part of the experimental groups (i.e. mice without test experience) were decapitated, brains rapidly removed and frozen at −80° C. until usage.\nThe effects of P2X7R inhibition on depressive-like behaviour was assessed 24 hours and 48 hours after infusion of siRNA, control or vehicle according to the standard test paradigm, the Porsolt's forced swim test (Porsolt et al., Arch. Int. Pharmacodym. 229 (1977), 327-336; Porsolt, Rev. Neurosci. 11 (2000), 53-58). […] Compared to vehicle application, no influence of control double stranded RNA (5′-[…]-3′) on floating behaviour (passive stress coping) was detected. […] This interpretation becomes moreover evident when the effects of antidepressants on passive stress coping behaviour in the forced swim test are visualized (FIG. 5). Passive stress coping behaviour increased after acute intrahippocampal injection (bilateral, dentate gyrus) of siRNA targeting P2X7R. The Porsolt's forced swim test is a standard test used to assess the effectiveness of antidepressants and it has been proven by many studies that the test is selectively sensitive for these effects, given that the right animal model is used. The paradigm has been widely used to test pharmaceutical compounds and to validate animal models of depression, which show an increase in passive behaviour as do the mice where P2X7R has been inhibited (siRNA).\nThe forced swim test is a standard test that measures primary stress-induced reductions in avoidance or escape, termed behavioural despair. The test is used to determine the effectiveness of antidepressants, test new pharmaceutical compounds and validate animal models of depression (Porsolt et al., Arch. Int. Pharmacodym. 229 (1977), 327-336; Porsolt, Rev. Neurosci. 11 (2000), 53-58; Rénéric et al., Behav. Brain Res. 136 (2002), 521-532; Page et al., Psychopharmacology 165 (2003), 194-201; Kelliher et al., Psychoneuroendocrinology 28 (2003), 332-347). The test consists of placing a mouse for a period of 5 minutes into a glass cylinder containing water. Under such circumstances, the mouse cannot touch the bottom of the cylinder and is thus forced to swim. Time, latency and frequency of struggling versus floating are scored as behavioural parameters. […] Increased struggling (i.e. active attempts to escape) indicates active coping behaviour that can be interpreted as an improvement of depression-like symptoms. For example, treatment with serotonergic antidepressants reduce the total time spent floating (Borsini, Neurosci. Biobehav. Rev. 19 (1995), 377-395; Redrobe and Bourin, Psychopharmacology 138 (1998), 198-206, and in parallel increases the time of active behaviour (i.e. swimming or struggling; Lucki et al., Psychopharmacology 155 (2001), 315-322).\nThe behaviour of individual mice was assessed using the Porsolt's forced swim test 24 hours after injection of vehicle solution, KN-62, or oATP. A pre-exposure of 5 minutes to the test was performed 15-17 minutes after administration of vehicle, KN-62, or oATP. A description of the Porsolt's forced swim test is given in example 9. […]", "data": [{"substance": "2′-3′-O-(4-Benzoylbenzoyl)adenosine 5′-triphosphate [BzATP]", "values": [{"measurement": "passive behaviour (time, frequency, latency of floating) in the forced swim test", "setting": "latency and frequency of floating statistically significant", "value": "decrease"}, {"measurement": "active escape attempts (time, frequency, latency of struggling) in the forced swim test", "setting": "time struggling statistically significant", "value": "increase"}]}]}
